Data taken from a melting point compilation (Tetko et al.; mined from patent text by program, amines drawn as free bases though some values may be those of a salt).

First: N#CC(C(=O)Nc1ccccc1Cl)C(=O)c1nn(-c2ccccc2)c2c1Cc1ccccc1-2 (stereo not given)
Second: O=C(Nc1ccc(F)cc1F)N(Cc1ccccc1)CC(c1ccccc1)c1ccccc1
The melting point of the first is higher: 295 to 297 °C for the first, 120 to 123 °C for the second.

Compared with `O=C(O)C1=Cc2cc(Cl)c(Oc3cccnc3Cl)cc2OC1C(F)(F)F` (stereo not given), `Cc1cc(N)cnc1Oc1ccc(Cl)c(C(F)(F)F)c1` is lower in melting point: 213 to 216 °C for the first, 92 to 94 °C for the second.

First: C=C(C=O)c1ccc(C)cc1[N+](=O)[O-]
Second: Cc1cccc(Nc2ccccc2[N+](=O)[O-])c1C
The melting point of the first is lower: 58.5 to 60 °C for the first, 118 to 120 °C for the second.

Compared with `C[C@@H](N1CCN(c2ccc(-n3cnn(Cc4ccc(OCC(F)(F)C(F)F)cc4)c3=O)cc2)CC1)[C@](O)(Cn1cncn1)c1ccc(F)cc1F`, `CN(C)CCCOc1ccc(-c2ccc3nnn(Cc4ccc5ncccc5c4)c3n2)cc1F` is higher in melting point: 83 to 85 °C for the first, 102 to 105 °C for the second.

First: COc1ccc(CNc2cc(F)cc(CO)c2)cc1
Second: CCNC(=O)c1cc2ccc(OC)cc2n1CCNC(C)=O
The melting point of the first is lower: 93 °C for the first, 135 to 136 °C for the second.

Compared with `N#Cc1ccccc1Sc1ccc([N+](=O)[O-])cc1`, `O=C(NNc1ccc([N+](=O)[O-])cc1)c1ccccc1` is higher in melting point: 151 to 153 °C for the first, 194 to 195 °C for the second.

First: O=C(Nc1ccccc1)c1ccc2c(c1)S(=O)(=O)N=CN2C1CC1
Second: Cc1ncc2n1-c1ccc(Cl)cc1C(c1ccccc1F)NC2 (stereo not given)
The melting point of the first is higher: 293 to 296 °C for the first, 200 to 203 °C for the second.

First: CSc1nc(CCC(F)(F)F)nc2sc(C)cc12
Second: CNc1cccc(-c2ccc3nnc(C)n3n2)c1
The melting point of the first is lower: 81 to 83 °C for the first, 223 to 226 °C for the second.

First: CC(=O)c1cccc(SCCCc2cn(S(=O)(=O)N(C)C)cn2)c1
Second: CSc1ccc(NS(=O)(=O)c2cccc3c(N(C)C)cccc23)nn1
The melting point of the first is lower: 122 to 124 °C for the first, 188 to 190 °C for the second.

Going from `COc1ccc(-c2nc3cnncc3[nH]2)c(OC)c1` to `COc1ccc(-c2nc(Sc3ccccn3)[nH]c2-c2ccc(OC)cc2)cc1`, the melting point falls from 268 °C to 94 °C.

First: CC1(C)CS(=O)(=O)CC(C)(C)[NH+]1[O-]
Second: CC(C)n1nc(Br)c([N+](=O)[O-])c1Br
The melting point of the first is higher: 163 °C for the first, 72 to 73 °C for the second.

First: CC(C)c1cccc(CN2C[C@H](CO)OC2=O)c1
Second: Cc1cccc(C)c1N(C)C(=O)Cl
The melting point of the first is lower: 75 to 77 °C for the first, 79 to 80 °C for the second.

First: COc1cc2c(Nc3ccc4cn[nH]c4c3)c(C#N)cnc2cc1OCCN(C)CC1OCCO1
Second: CC(=O)Oc1cccc(C=C2CCCc3cc(C)cnc32)c1
The melting point of the first is higher: 185 to 187 °C for the first, 66 to 68 °C for the second.

Compared with `CS(=O)(=O)c1ccc(Oc2ccc(O)cc2)cc1`, `CNc1cc(N(C)S(=O)(=O)c2ccc(N)cc2)nc(NC)n1` is lower in melting point: 129 to 130 °C for the first, 79 to 80 °C for the second.

First: Cc1ccc(C(=O)NCCN(C)C)cc1-n1c(C)cc(OCc2ccccc2CNC(=O)Nc2cc(C(C)(C)C)nn2-c2ccc(Cl)c(O)c2)c(Cl)c1=O
Second: Nc1ccccc1NC(=O)c1ccc(CNC(=O)c2[nH]c(-c3ccc(O)cc3)cc2-c2ccccc2)cc1
The melting point of the first is lower: 185 to 186 °C for the first, 241 to 242 °C for the second.

First: CC(C)c1cccc(C(C)C)c1NC(=S)NC(C)(C)C(C)(C)C
Second: CCC(C)(C)c1cccc(NC=O)c1Br
The melting point of the first is higher: 161 to 162 °C for the first, 88 to 89 °C for the second.

Going from `C=CCc1cc(C(C)=O)c(O)cc1OCCCCC#N` to `CCCCN1CCC(CNC(=O)c2ccc(N)n3cc(CCC)nc23)CC1`, the melting point rises from 54 °C to 172 °C.

First: CCc1cc2oc(=O)c([N+](=O)[O-])c(O)c2cc1CC
Second: CCC1=C(C)CN(C(=O)NC2COc3cc(OC)ccc3C2)C1=O (stereo not given)
The melting point of the first is lower: 115 to 117 °C for the first, 118 to 119 °C for the second.

`COc1c(N2CCC(N)C2)c(F)c(N)c2c(=O)c(C(=O)O)cn(C3CC3)c12` (stereo not given) and `Nc1nc2ccccc2c2c1ncn2CC1(O)CCCC1` cannot be ordered by melting point: 254 to 257 °C for the first, 254 to 255 °C for the second.

First: Nc1cccc(Cn2c(-c3ccc(C4=CC=CNC4)cc3)ccc2-c2ccccc2Cl)n1
Second: CCOC(=O)c1c(Cn2cnnc2)nc2sc(C)c(C)c2c1-c1ccc(Cl)cc1
The melting point of the first is higher: 163 to 166 °C for the first, 138 to 139 °C for the second.
